{"source": "patent US10456414B2", "about": "“Methods for treating HCV” (priority 2011, dated 2019)", "key": {"[1]": {"system": "Huh-7 cells carrying an HCV genotype 1a replicon", "conditions": "with 320 nM Compound 10 and the highest concentration of the listed compound"}, "[2]": {"system": "GT2b NS5B S282T mutant chimeric replicon", "assay": "microbe, parasite or virus in culture", "assay_type": "cell-based, HCV"}, "GT2a wild-type replicon": {"system": "GT2a wild-type replicon", "assay": "microbe, parasite or virus in culture", "assay_type": "cell-based, HCV", "conditions": "Hepatitis C virus, 72 h, 3 days"}, "[3]": {"system": "Genotype 1a replicon, NS5A M28T"}, "HCV genotype 1a replicon [4]": {"system": "HCV genotype 1a replicon", "assay": "HCV genotype 1a replicon assay, EC50 (Biological Example 3)", "assay_type": "cell-based", "conditions": "Hepatitis C virus, 72 h, 3 days, average ± standard deviation, read-out: EC50"}, "[5]": {"system": "Huh-7 cells carrying a HCV genotype 1a replicon", "assay": "HCV genotype 1a replicon assay, CC50 by calcein AM (Biological Example 3)", "assay_type": "cell-based", "conditions": "genotype 1a replicon cells, 3 days, read-out: CC50", "method": "The CC50 assay was performed first."}, "[6]": {"system": "GT2a NS5B S282T mutant replicon", "assay": "microbe, parasite or virus in culture", "assay_type": "cell-based, HCV"}, "[7]": {"system": "Genotype 1a replicon, NS5A Y93H"}, "genotype 1b replicon RNA": {"system": "genotype 1b replicon RNA", "assay": "Replicon RNA suppression, 6 day assay, QRT-PCR"}, "[8]": {"system": "Genotype 1 b replicon cells", "assay": "Compound combination replicon cure assay, colony formation", "conditions": "6 days treatment at the same concentrations, then G418 for 14 days"}, "[9]": {"system": "Huh-7 cells carrying a HCV genotype 1a replicon", "assay": "Cytotoxicity combination studies with Compound 4, MacSynergy II"}, "[10]": {"system": "GT4a NS5B S282T mutant chimeric replicon", "assay": "microbe, parasite or virus in culture", "assay_type": "cell-based, HCV"}, "[11]": {"system": "Genotype 1a replicon, NS5A Q30E"}, "[12]": {"system": "GT3a NS5B S282T mutant chimeric replicon", "assay": "microbe, parasite or virus in culture", "assay_type": "cell-based, HCV"}, "[13]": {"assay": "Drug-drug interactions of co-administered compounds (exposure)", "assay_type": "in vivo", "conditions": "co-administered with Compound 2", "method": "With respect to Compounds 9 and 10, or pharmaceutically acceptable salts thereof, the composition may comprise 10 mg to 1000 mg per day (according to US 2010/0298257). With respect to Compound 11, or pharmaceutically acceptable salts thereof, the composition may comprise 1 mg to 1000 mg per day (according to US 2010/0081628)."}, "HCV genotype 1a replicon [14]": {"system": "HCV genotype 1a replicon", "assay": "HCV genotype 1a replicon assay, EC50 (Biological Example 8)", "conditions": "Hepatitis C virus, 72 h"}, "[15]": {"system": "Genotype 1a replicon, NS5A Q30H"}, "[16]": {"system": "GT4a wild-type chimeric replicon (4a NS5B in GT1b backbone)", "assay": "microbe, parasite or virus in culture", "assay_type": "cell-based, HCV", "conditions": "Hepatitis C virus, 72 h, read-out: EC50 WT"}, "[17]": {"system": "Genotype 1a replicon, NS5A Y93C"}, "HCV genotype 1a replicon [18]": {"system": "HCV genotype 1a replicon", "assay": "Antiviral combination studies with Compound 4, MacSynergy II"}, "[19]": {"assay": "HCV genotype 1a replicon assay, CC50 by calcein AM (Biological Example 8)", "conditions": "human, Huh-7 cells carrying an HCV genotype 1a replicon"}, "[20]": {"system": "GT3a wild-type chimeric replicon (3a NS5B in GT1b backbone)", "assay": "microbe, parasite or virus in culture", "assay_type": "cell-based, HCV", "conditions": "Hepatitis C virus, 72 h, read-out: EC50 WT"}, "[21]": {"system": "Genotype 1a replicon, NS5A L31M"}, "GT1b wild-type replicon": {"system": "GT1b wild-type replicon", "assay": "microbe, parasite or virus in culture", "assay_type": "cell-based, HCV", "conditions": "Hepatitis C virus, 72 h, 3 days"}, "[22]": {"system": "GT2b wild-type chimeric replicon (2b NS5B in GT1b backbone)", "assay": "microbe, parasite or virus in culture", "assay_type": "cell-based, HCV", "conditions": "Hepatitis C virus, 72 h, read-out: EC50 WT"}, "[23]": {"system": "Genotype 1a replicon, NS5A Q30R"}, "[24]": {"system": "GT1b NS5B S282T mutant replicon", "assay": "microbe, parasite or virus in culture", "assay_type": "cell-based, HCV"}, "[25]": {"system": "1b Huh-luc replicon cells", "assay": "Antiviral combination studies with Compound 5, MacSynergy II", "assay_type": "cell-based, HCV", "conditions": "in combination with Compound 5, mean ± standard deviation", "method": "Combination data were analyzed based on the Bliss Independence model using MacSynergy II software. Results of the combination assays were expressed as mean synergy and antagonism volumes (nM^2) calculated at 95% confidence from two independent experiments performed in triplicate."}, "[26]": {"conditions": "in combination with Compound 4, mean ± standard deviation"}}, "note": "Like-named read-outs stand apart in the source and are kept apart here.", "data": [{"smiles": "COC(=O)N[C@H](C(=O)N1CC2(CC2)C[C@H]1c1ncc(-c2ccc3c(c2)C(F)(F)c2cc(-c4ccc5nc([C@@H]6[C@H]7CC[C@H](C7)N6C(=O)[C@@H](NC(=O)OC)C(C)C)[nH]c5c4)ccc2-3)[nH]1)C(C)C", "note": "[Compound 6, (1-{3-[6-(9,9-Difluoro-7-{2-[5-(2-methoxycarbonylamino-3-methyl-butyryl)-5-aza-spiro[2.4]hept-6-yl]-3H-imidazol-4-yl}-9H-fluoren-2-yl)-1H-benzoimidazol-2-yl]-2-aza-bicyclo[2.2.1]heptane-2-carbonyl}-2-methyl-propyl)-carbamic acid methyl ester]", "values": [{"measurement": "Cytotoxicity at Highest Concentration of Compound Combinations (% inhibition on cell growth)", "setting": "[1]", "result": "5.0 ± 5.0", "unit": "%"}, {"measurement": "Fold change", "setting": "[2]; GT2b, S282T EC50 versus corresponding wild type", "result": 0.9}, {"measurement": "EC50", "setting": "[2]; Hepatitis C virus, GT2B, 72 h, read-out: EC50 S282T", "result": 0.5, "unit": "nM"}, {"measurement": "EC50", "setting": "GT2a wild-type replicon", "result": 5.17, "unit": "µM"}, {"measurement": "Fold Shift in EC50 (DRM EC50/1a-H77 EC50)", "setting": "[3]", "result": 25}, {"measurement": "EC50", "setting": "HCV genotype 1a replicon [4]", "result": "0.033 ± 0.011", "unit": "nM"}, {"measurement": "CC50", "setting": "[5]", "result": "> 44.4", "unit": "µM"}, {"measurement": "Fold change", "setting": "[6]; GT2a, S282T EC50 versus corresponding wild type", "result": 0.5}, {"measurement": "EC50", "setting": "[6]; Hepatitis C virus, GT2A, 72 h, read-out: EC50 S282T", "result": 2340, "unit": "nM"}, {"measurement": "Fold Shift in EC50 (DRM EC50/1a-H77 EC50)", "setting": "[7]", "result": 3029}, {"measurement": "Replicon RNA log drop", "setting": "genotype 1b replicon RNA", "result": "−1.4", "unit": "log"}, {"measurement": "Compound concentration able to induce replicon RNA 1-1.5 log drop in a 6 day assay", "setting": "genotype 1b replicon RNA; genotype 1b replicon cells, 6 days", "result": 0.004, "unit": "nM"}, {"measurement": "Replicon RNA log drop", "setting": "genotype 1b replicon RNA; single compound at the listed concentration, 6 days, relative to DMSO control (Table XIV)", "result": "−1.4", "unit": "log"}, {"measurement": "Uncured colony number", "setting": "[8]", "result": 634}, {"measurement": "Interaction (cytotoxicity)", "setting": "[9]; in combination with Compound 4", "result": "Additivity (Additivity: ≤25 and >−25 nM^2%)"}, {"measurement": "Antagonism Volume (cytotoxicity)", "setting": "[9]; [26]", "result": "0 ± 0", "unit": "nM^2%"}, {"measurement": "Synergy Volume (cytotoxicity)", "setting": "[9]; [26]", "result": "8 ± 4", "unit": "nM^2%"}, {"measurement": "Fold change", "setting": "[10]; GT4a, S282T EC50 versus corresponding wild type", "result": 0.8}, {"measurement": "EC50", "setting": "[10]; Hepatitis C virus, GT4A, 72 h, read-out: EC50 S282T", "result": 0.4, "unit": "nM"}, {"measurement": "Fold Shift in EC50 (DRM EC50/1a-H77 EC50)", "setting": "[11]", "result": 997}, {"measurement": "Fold change", "setting": "[12]; GT3a, S282T EC50 versus corresponding wild type", "result": 0.6}, {"measurement": "EC50", "setting": "[12]; Hepatitis C virus, GT3A, 72 h, read-out: EC50 S282T", "result": 0.2, "unit": "nM"}, {"measurement": "increase of exposure of Compound 6 by Compound 2", "setting": "[13]", "result": "approximately 5 ×"}, {"measurement": "EC50", "setting": "HCV genotype 1a replicon [14]", "result": 0.032, "unit": "nM"}, {"measurement": "Fold Shift in EC50 (DRM EC50/1a-H77 EC50)", "setting": "[15]", "result": 73}, {"measurement": "EC50", "setting": "[16]", "result": 0.5, "unit": "nM"}, {"measurement": "Fold Shift in EC50 (DRM EC50/1a-H77 EC50)", "setting": "[17]", "result": 327}, {"measurement": "Interaction", "setting": "HCV genotype 1a replicon [18]; in combination with Compound 4", "result": "Additivity (Additivity: ≤25 and >−25 nM^2%)"}, {"measurement": "Antagonism Volume", "setting": "HCV genotype 1a replicon [18]; [26]", "result": "−7 ± 7", "unit": "nM^2%"}, {"measurement": "Synergy Volume", "setting": "HCV genotype 1a replicon [18]; [26]", "result": "19 ± 17", "unit": "nM^2%"}, {"measurement": "CC50 at 3 days", "setting": "[19]", "result": "> 44.4", "unit": "µM"}, {"measurement": "EC50", "setting": "[20]", "result": 0.4, "unit": "nM"}, {"measurement": "Fold Shift in EC50 (DRM EC50/1a-H77 EC50)", "setting": "[21]", "result": 140}, {"measurement": "EC50", "setting": "GT1b wild-type replicon", "result": 0.5, "unit": "nM"}, {"measurement": "EC50", "setting": "[22]", "result": 0.5, "unit": "nM"}, {"measurement": "Fold Shift in EC50 (DRM EC50/1a-H77 EC50)", "setting": "[23]", "result": 170}, {"measurement": "Fold change", "setting": "[24]; GT1b, S282T EC50 versus corresponding wild type", "result": 0.8}, {"measurement": "EC50", "setting": "[24]; Hepatitis C virus, GT1B, 72 h, read-out: EC50 S282T", "result": 0.4, "unit": "nM"}, {"measurement": "Antagonism Volume", "setting": "[25]", "result": "0 ± 0", "unit": "nM^2"}, {"measurement": "Synergy Volume", "setting": "[25]", "result": "34 ± 19", "unit": "nM^2"}]}]}
